Test systems include MOLT-4 leukemia; NCI-H226 lung; TK-10 renal; NCI-H23 lung; MALME-3M melanoma; SN12C renal; HOP-92 NSCLC; SF-268 CNS; OVCAR-8 ovarian; M14 melanoma.
What all share (test): NCI anticancer screen, dose series, 48 h

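Test compounds were applied to cells in 96-well plates for 48 hours at 5 doses. GI50: concentration for 50% inhibition of growth. TGI: total growth inhibition.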 Where only a bound is given, the exact number is not on record here.

`Cn1ccnc1C(=O)/C=C/c1ccc(CC(=O)Nc2ccccc2)cc1`: the GI50 in the experiment with MOLT-4 leukemia was 4.3 µM; in the experiment on NCI-H226 lung it was 8.59 µM; in the experiment on TK-10 renal it was 7.44 µM; with NCI-H23 lung, 3.24 µM; in the experiment with MALME-3M melanoma it was 5.93 µM; in the experiment with SN12C renal it was 3.84 µM. Besides, the GI50 with HOP-92 NSCLC was 6.63 µM; in the experiment with SF-268 CNS it was 3.72 µM; in the experiment with OVCAR-8 ovarian it was 6.44 µM; in the experiment on M14 melanoma, 4.55 µM. Also, the TGI in the experiment on MOLT-4 leukemia was more than 25 µM; in the experiment with NCI-H226 lung, more than 25 µM; with TK-10 renal it was 19.9 µM; in the experiment on NCI-H23 lung, 11.3 µM; in the experiment on MALME-3M melanoma it was 22 µM; in the experiment with SN12C renal, 14.3 µM. The TGI in the experiment on HOP-92 NSCLC was more than 25 µM; in the experiment on SF-268 CNS, 13.9 µM; in the experiment with OVCAR-8 ovarian it was more than 25 µM; in the experiment on M14 melanoma it was 10.8 µM.

As to `COc1ccc(NC(=O)c2cc(OC)c(OC)c(OC)c2)cc1`, the TGI with MOLT-4 leukemia is more than 100 µM; in the experiment with NCI-H226 lung, more than 100 µM; in the experiment with TK-10 renal, more than 100 µM; with NCI-H23 lung, more than 91.9 µM; in the experiment on MALME-3M melanoma it was 97.7 µM; in the experiment with SN12C renal, more than 100 µM. In addition, the TGI is more than 100 µM in the experiment with HOP-92 NSCLC, more than 94.8 µM in the experiment with SF-268 CNS, more than 100 µM in the experiment with OVCAR-8 ovarian and more than 100 µM in the experiment with M14 melanoma.

The values above are taken from PubChem BioAssay (NCI).
